Experimental data from article PMC3913711, “A Novel Angiotensin I-Converting Enzyme Mutation (S333W) Impairs N-Domain Enzymatic Cleavage of the Anti-Fibrotic Peptide, AcSDKP” (PLoS ONE, 2014).
Residues, ends and D or L forms follow the SMILES beside them. *: point of attachment. Bz = O=C(c1ccccc1)*

Legend:
[1] = target: T1, Angiotensin I-converting enzyme (ACE, CD143) (Homo sapiens, UniProt P12821, S362W); experiment: fluorimetric hydrolysis assay (His-Leu product), […] substrate; type: cell-based
T1 construct: full-length somatic ACE, CHO cell lysate

[2] = target: T2, Angiotensin I-converting enzyme (ACE, CD143) (Homo sapiens, UniProt P12821); experiment: as above; type: cell-based
T2 construct: full-length somatic ACE, CHO cell lysate
T2 sequence (P12821 30-1306): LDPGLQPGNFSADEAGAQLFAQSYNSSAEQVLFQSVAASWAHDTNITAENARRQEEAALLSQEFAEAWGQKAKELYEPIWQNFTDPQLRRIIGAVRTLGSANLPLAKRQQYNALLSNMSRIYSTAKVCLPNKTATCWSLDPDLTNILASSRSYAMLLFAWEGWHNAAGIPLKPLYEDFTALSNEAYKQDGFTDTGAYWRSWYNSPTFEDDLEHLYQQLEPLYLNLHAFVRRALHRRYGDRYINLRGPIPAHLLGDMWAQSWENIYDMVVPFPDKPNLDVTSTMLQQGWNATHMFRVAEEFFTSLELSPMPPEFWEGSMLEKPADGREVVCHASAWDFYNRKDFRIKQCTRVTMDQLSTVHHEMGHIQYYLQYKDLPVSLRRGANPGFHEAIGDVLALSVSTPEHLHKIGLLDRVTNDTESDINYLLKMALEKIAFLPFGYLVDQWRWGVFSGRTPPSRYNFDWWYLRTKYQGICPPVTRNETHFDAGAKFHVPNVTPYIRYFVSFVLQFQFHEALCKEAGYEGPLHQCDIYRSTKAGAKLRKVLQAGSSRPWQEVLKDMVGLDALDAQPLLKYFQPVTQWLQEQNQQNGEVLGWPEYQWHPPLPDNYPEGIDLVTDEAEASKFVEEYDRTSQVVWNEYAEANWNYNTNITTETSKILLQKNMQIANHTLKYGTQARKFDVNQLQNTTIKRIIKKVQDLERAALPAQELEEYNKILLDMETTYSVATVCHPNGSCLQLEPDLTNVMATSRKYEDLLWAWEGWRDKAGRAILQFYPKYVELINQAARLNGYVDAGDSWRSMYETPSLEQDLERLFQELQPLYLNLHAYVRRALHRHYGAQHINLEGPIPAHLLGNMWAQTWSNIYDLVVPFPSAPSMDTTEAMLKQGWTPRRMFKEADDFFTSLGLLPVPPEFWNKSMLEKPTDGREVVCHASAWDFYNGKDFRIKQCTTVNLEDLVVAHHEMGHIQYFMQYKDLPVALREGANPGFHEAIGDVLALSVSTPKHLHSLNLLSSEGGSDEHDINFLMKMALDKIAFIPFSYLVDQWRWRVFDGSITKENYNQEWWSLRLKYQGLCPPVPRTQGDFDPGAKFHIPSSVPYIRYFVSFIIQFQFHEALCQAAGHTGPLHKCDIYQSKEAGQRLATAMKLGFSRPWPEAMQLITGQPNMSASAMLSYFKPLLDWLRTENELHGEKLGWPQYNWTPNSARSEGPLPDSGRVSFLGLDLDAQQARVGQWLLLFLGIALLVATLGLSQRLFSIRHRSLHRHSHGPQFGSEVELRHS

T1 sequence (P12821 30-1306 S362W): as the sequence (P12821 30-1306) above, with S333W counted along it

In the case of `CC(C)C[C@H](NC(=O)[C@H](Cc1cnc[nH]1)NC(=O)CNC(=O)c1ccccc1)C(=O)O` [Hip-His-Leu] (Bz-Gly-His-Leu-OH), the “fluorimetric hydrolysis assay (His-Leu product), 5 mM substrate” value [1] is reported as “stably expressing WT and mutant ACE was determined with substrates Hip-His-Leu and Z-Phe-His –Leu” and the “fluorimetric hydrolysis assay (His-Leu product), 5 mM substrate” value [2] is reported as “stably expressing WT and mutant ACE was determined with substrates Hip-His-Leu and Z-Phe-His –Leu”.
